Data set [1] is described as follows: Stability in human whole blood. Conditions: 37° C., up to 60 min. In kind it is in vitro ADME. The protocol: The stability of selected compounds in human whole blood was evaluated according to the following protocol. Compounds and positive control samples were dissolved in 100% DMSO at 3 mM (stock solution). To investigate the stability of the test compounds in whole blood, a 200 μM working solution (WS) in water has been prepared by adding 66.66 μl of each 3 mM stock solution to 933.34 μl of water (6.66% DMSO content). After pre-incubation of the whole blood at 37° C. for 5 min in an eppendorf, 10.5 μl of each working solution were spiked into 689.5 μl of heated blood. The obtained 3 μM solution in blood (0.1% DMSO content) was quickly stirred and 100 μl for each time point were transferred to an eppendorf. Each compound was tested in duplicate at five time points (10, 20, 30, 40 and 60 min). At each time point, the reaction was stopped by quenching the spiked blood (100 μl) with 400 μl of 100% acetonitrile containing 0.1% formic acid. Then samples were centrifuged at 15600 rpm for 15 min at +4° C. and 200 μl of supernatant were transferred to a 96-deepwell plate. Samples were evaporated under N2 and reconstituted in H2O/ACN 0.1% formic Acid (98/2 v/v) containing the appropriate internal standard. Analysis was performed without a calibration curve by using an Acquity-UPLC (Waters) coupled to a triple quadrupole mass spectrometer (SciexAPI4000). Time point 0 was obtained by adding 3 μL of each 200 μM working solution to 997 μL of the supernatant obtaining after centrifugation (15600 rpm for 15 min at +4° C.) of the blank matrix quenched with acetonitrile containing 0.1% formic acid.
Stability was determined based on analysis of disappearance of the compounds as a function of incubation time. Quantification of test compounds was measured as a peak area relative to an internal standard. The elimination constant k and half-life (t1/2) were determined as described above in Example 7.

Another data set has as its system PANK2−/− IMR32 cells. Briefly: Coenzyme A assay in PANK2 silenced cells (LC-MS quantification of free CoA). The following applies: fold increase in CoA levels relative to controls, treated twice, 24 h + 24 h; for fold induction at 50 µM / fold induction at 1 µM: Homo sapiens, IMR-32; for fold induction at 50 µM: compound concentration 50 uM; for fold induction at 1 µM: compound concentration 1 uM; for PANK2−/− CoA Fold increase: compound concentration 10 uM. In kind it is cell-based, human. The procedure:
A human neuroblastoma IMR32 cell line (ATCC) with stably PANK2 silencing was obtained by lentiviral-delivered small hairpin RNA and cultured in MEM (Invitrogen) supplemented with 10% fetal bovine serum, 2 mM glutamine, 1% penicillin-streptomycin, 1 mM sodium pyruvate, 1 mM non-essential amino acids, and 1.5 g/l sodium bicarbonate.
A non-silencing shRNA construct (scrambled shRNA) and an empty vector expressing GFP alone were used as negative controls. The GFP tag subcloned into the lentiviral vectors was used to monitor the transfection efficiency.
Three days after transduction medium was removed and replaced with fresh medium containing […] puromycin. […] The level of PANK2 expression in selected clones was assessed by Western Blot analysis.
To quantify CoA, PANK2−/− IMR32 cells were plated on 12-well culture plates (Corning) at a density of 0.2×10^6 cells per well. […] Controls with medium containing 0.1% DMSO without test compounds were also included in each plate. […] Before LC-MS analysis of CoA levels, cells were harvested, counted, and collected in a 15 ml falcon tube and centrifuged at 200×g for 5 min at 4° C. Supernatant was removed and cell pellet was washed in 10 ml of ice-cold PBS. To further confirm that the numbers of cells in each sample were equivalent, an equal fraction of pellet was collected from each sample and subjected to protein determination analysis. After centrifugation and supernatant removal, the cell pellet was rapidly frozen in Liquid Nitrogen and stored at −80° C. until analysis.
Intracellular CoA levels were calculated considering an intracellular volume of 1 million cells=2 μl.
The 1*10^6 cellular pellet was extracted with 120 μl of aqueous 20% TFA.
100 μL samples of supernatant were dried under N2 at 20° C. in the dark.
Samples were re-dissolved in 100 μl of 10 mM NH4^+ AcO^− buffer pH 5.1+IS (Dextrorphan 50 ng/ml), stirred for 2 min, sonicated in ultrasonic bath for 1 min, then stirred again for 1 min, and injected into LC-MS.
LC-MS/MS was performed using an Agilent HPLC (1100 Series, USA). The LC system was interfaced with an API-4000 Q-Trap triple quadrupole mass spectrometer (AB Sciex, Toronto, Canada) equipped with a TurboIonSpray ionization source operating in positive ion mode. Analyst™ software version 1.6 (AB Sciex, Toronto, Canada) was used for data acquisition and processing. CoA was separated using a Luna C18 column (2.0×50 mm; 5 μm particle size), column at 25° C. and flow rate of 0.2 ml/min. Injection volume was 15 μl. The mobile phases consisted of water containing 10 mM ammonium acetate pH 7 (mobile phase A) and MeCN-2-propanol 9:1 (mobile phase B).
Results are expressed as fold increase in CoA levels relative to controls (using LC-MS quantification of free CoA).

[2] abbreviates: Diastereoisomer A (upfield shift in 31P NMR), read-out: t1/2 (h) Human Whole Blood Diastereoisomer A (converted).
Where [3] appears, read: Diastereoisomer B, read-out: t1/2 (h) Human Whole Blood Diastereoisomer B (converted).

Where two headings read alike, the source gives them in different places.

Take `CC(=O)SCCNC(=O)CCNC(=O)[C@@H]1OP(=O)(OCOC(=O)c2ccnn2C)OCC1(C)C` (stereo partly drawn) [R1011, (((4R)-4-((3-((2-(acetylthio)ethyl)amino)-3-oxopropyl)carbamoyl)-5,5-dimethyl-2-oxido-1,3,2-dioxaphosphinan-2-yl)oxy)methyl 1-methyl-1H-pyrazole-5-carboxylate]: the half-life at 3 μM in data set [1] (setting [2]) is 0.42 h; in data set [1] (setting [3]), < 0.16 h. In addition, in the data set on PANK2−/− IMR32 cells, the fold induction at 50 µM was 102.
`CC(=O)SCCNC(=O)CCNC(=O)[C@@H]1OP(=O)(OCOC(=O)NC(C)(C)COC(=O)[C@@H](N)C(C)C)OCC1(C)C` (stereo partly drawn) [R1012, 2-((((((4R)-4-((3-((2-(acetylthio)ethyl)amino)-3-oxopropyl)carbamoyl)-5,5-dimethyl-2-oxido-1,3,2-dioxaphosphinan-2-yl)oxy)methoxy)carbonyl)amino)-2-methylpropyl L-valinate]: in data set [1] (setting [2]), the half-life at 3 μM is 0.41 h. In the data set on PANK2−/− IMR32 cells, the fold induction at 50 µM was 1.5.
Take `CC(=O)SCCNC(=O)CCNC(=O)[C@@H]1OP(=O)(OCOC(=O)N[C@@H](CSC(=O)C(C)(C)C)C(=O)O)OCC1(C)C` (stereo partly drawn) [R1013, N-(((((4R)-4-((3-((2-(acetylthio)ethyl)amino)-3-oxopropyl)carbamoyl)-5,5-dimethyl-2-oxido-1,3,2-dioxaphosphinan-2-yl)oxy)methoxy)carbonyl)-S-pivaloyl-L-cysteine]: the half-life at 3 μM was 0.78 h in data set [1] (setting [2]) and 0.6 h in data set [1] (setting [3]). The fold induction at 50 µM in the data set on PANK2−/− IMR32 cells came out at 1.
For the compound `COC(=O)[C@@H](N[P@]1(=O)OCC(C)(C)[C@H](C(=O)NCCC(=O)NCCSC(C)=O)O1)C(C)C` [R1015, methyl ((2S,4R)-4-((3-((2-(acetylthio)ethyl)amino)-3-oxopropyl)carbamoyl)-5,5-dimethyl-2-oxido-1,3,2-dioxaphosphinan-2-yl)-L-valinate], the half-life at 3 μM in data set [1] (setting [3]) is > 1 h. In addition, the fold induction at 50 µM in the data set on PANK2−/− IMR32 cells was 2.1.
For `CC(=O)SCCNC(=O)CCNC(=O)[C@@H]1O[P@](=O)(OCOC(=O)c2cc(C(C)(C)C)n[nH]2)OCC1(C)C` [R1019, (((2R,4R)-4-((3-((2-(acetylthio)ethyl)amino)-3-oxopropyl)carbamoyl)-5,5-dimethyl-2-oxido-1,3,2-dioxaphosphinan-2-yl)oxy)methyl 3-(tert-butyl)-1H-pyrazole-5-carboxylate], in data set [1] (setting [3]), the half-life at 3 μM was < 0.16 h. Also, the fold induction at 1 µM with PANK2−/− IMR32 cells was determined as 28.8.
With `COC(=O)[C@H](CSC(=O)C(C)(C)C)NC(=O)OCOP1(=O)OCC(C)(C)[C@H](C(=O)NCCC(=O)NCCSC(C)=O)O1` (stereo partly drawn) [R1020, methyl N-(((((4R)-4-((3-((2-(acetylthio)ethyl)amino)-3-oxopropyl)carbamoyl)-5,5-dimethyl-2-oxido-1,3,2-dioxaphosphinan-2-yl)oxy)methoxy)carbonyl)-S-pivaloyl-L-cysteinate], the half-life at 3 μM in data set [1] (setting [2]) is 0.65 h. In addition, in the data set on PANK2−/− IMR32 cells, the fold induction at 50 µM was determined as 74.2.
As for `CC(=O)SCCNC(=O)CCNC(=O)[C@@H]1OP(=O)(OCOC(=O)NCCSC(=O)[C@@H](N)C(C)C)OCC1(C)C` (stereo partly drawn) [R1021, S-(2-((((((4R)-4-((3-((2-(acetylthio)ethyl)amino)-3-oxopropyl)carbamoyl)-5,5-dimethyl-2-oxido-1,3,2-dioxaphosphinan-2-yl)oxy)methoxy)carbonyl)amino)ethyl) (2S)-2-amino-3-methylbutanethioate], in data set [1] (setting [2]), the half-life at 3 μM is 0.32 h. In the data set on PANK2−/− IMR32 cells, the fold induction at 50 µM turned out to be 3.7.
As to `COc1cccc(C(=O)OCOP2(=O)OCC(C)(C)[C@H](C(=O)NCCC(=O)NCCSC(C)=O)O2)c1` (stereo partly drawn) [R1038, (((4R)-4-((3-((2-(acetylthio)ethyl)amino)-3-oxopropyl)carbamoyl)-5,5-dimethyl-2-oxido-1,3,2-dioxaphosphinan-2-yl)oxy)methyl 3-methoxybenzoate], the fold induction at 1 µM in the data set with PANK2−/− IMR32 cells was determined as 26.2.
`CC(=O)SCCNC(=O)CCNC(=O)[C@@H]1OP(=O)(OCOC(=O)c2cccc(C)c2)OCC1(C)C` (stereo partly drawn) [R1039, (((4R)-4-((3-((2-(acetylthio)ethyl)amino)-3-oxopropyl)carbamoyl)-5,5-dimethyl-2-oxido-1,3,2-dioxaphosphinan-2-yl)oxy)methyl 3-methylbenzoate]: the fold induction at 1 µM in the data set on PANK2−/− IMR32 cells came out at 27.4.
Take `CC(=O)SCCNC(=O)CCNC(=O)[C@@H]1OP(=O)(OCOC(=O)c2ccc(C(F)(F)F)cn2)OCC1(C)C` (stereo partly drawn) [R1040, (((4R)-4-((3-((2-(acetylthio)ethyl)amino)-3-oxopropyl)carbamoyl)-5,5-dimethyl-2-oxido-1,3,2-dioxaphosphinan-2-yl)oxy)methyl 5-(trifluoromethyl)picolinate]: the fold induction at 50 µM with PANK2−/− IMR32 cells amounted to 4.5.
Regarding `CC(=O)SCCNC(=O)CCNC(=O)[C@@H]1O[P@@](=O)(Oc2ccccc2)OCC1(C)C` [R1041, S-(2-(3-((2S,4R)-5,5-dimethyl-2-oxido-2-phenoxy-1,3,2-dioxaphosphinane-4-carboxamido)propanamido)ethyl) ethanethioate], the “PANK2−/− CoA Fold increase” value in the data set on PANK2−/− IMR32 cells amounted to 1.8 fold.
Take `CC(=O)SCCNC(=O)CCNC(=O)[C@@H]1O[P@](=O)(Oc2ccccc2)OCC1(C)C` [R1042, S-(2-(3-((2R,4R)-5,5-dimethyl-2-oxido-2-phenoxy-1,3,2-dioxaphosphinane-4-carboxamido)propanamido)ethyl) ethanethioate]: in the data set with PANK2−/− IMR32 cells, the “PANK2−/− CoA Fold increase” value turned out to be 1.0 fold.
As for `CC(=O)SCCNC(=O)CCNC(=O)[C@@H]1OP(=O)(Oc2ccccc2)OCC1(C)C` (stereo partly drawn) [R1043, S-(2-(3-((4R)-5,5-dimethyl-2-oxido-2-phenoxy-1,3,2-dioxaphosphinane-4-carboxamido)propanamido)ethyl) ethanethioate], the “PANK2−/− CoA Fold increase” value with PANK2−/− IMR32 cells came out at 1.1 fold.
As to `CC(=O)SCCNC(=O)CCNC(=O)[C@@H]1O[P@](=O)(OCOC(=O)c2cc(C(C)(C)C)nn2C)OCC1(C)C` [R1044, (((2R,4R)-4-((3-((2-(acetylthio)ethyl)amino)-3-oxopropyl)carbamoyl)-5,5-dimethyl-2-oxido-1,3,2-dioxaphosphinan-2-yl)oxy)methyl 3-(tert-butyl)-1-methyl-1H-pyrazole-5-carboxylate], in the data set on PANK2−/− IMR32 cells, the fold induction at 1 µM was 20.3.
`CC(=O)SCCNC(=O)CCNC(=O)[C@@H]1O[P@@](=O)(OCOC(=O)c2cc(C(C)(C)C)nn2C)OCC1(C)C` [R1045, (((2S,4R)-4-((3-((2-(acetylthio)ethyl)amino)-3-oxopropyl)carbamoyl)-5,5-dimethyl-2-oxido-1,3,2-dioxaphosphinan-2-yl)oxy)methyl 3-(tert-butyl)-1-methyl-1H-pyrazole-5-carboxylate]: the fold induction at 1 µM in the data set on PANK2−/− IMR32 cells came to 2.3.

For orientation: fold induction means the signal under treatment as a multiple of the control signal.

The values above are taken from patent US20190337971A1, “PANTETHEINE DERIVATIVES FOR THE TREATMENT OF NEUROLOGIC DISORDERS” (Retrophin, Inc., priority 2016, published 2019).
